Assay results taken from patent publication US8785459B2, “Quinazoline compounds as kinase inhibitors” (Development Center for Biotechnology, priority 2011, dated 2014).

Assays:
A549 = assay: Anti-proliferative activity, CellTiter-96 assay, A549; assay type: cell-based; conditions: Homo sapiens, A549 cells, 72 hours incubation
In short: (§1)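 Cells in DMEM with 10% FCS at 37° C., 5% CO2, plated at 2000 cells/well for 24 h, then exposed to graded compound concentrations for 72 h. CellTiter-96 Aqueous One reagent added for 4.0 h; viability read as absorbance at 490 nm.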

MDA-MB-231 = assay: Anti-proliferative activity, CellTiter-96 assay, MDA-MB-231; assay type: cell-based; conditions: Homo sapiens, MDA-MB-231 cells, 72 hours incubation
In short: as §1

FLT3 kinase = FLT3 kinase (Homo sapiens (Human), UniProt P36888); assay: FLT3 kinase assay; assay type: biochemical
Procedure: Inhibition of FLT3 kinase activity by compounds disclosed herein was quantified by measuring the amount of [^33P] incorporated into the substrate in the presence of a test compound. Briefly, a reaction mixture of 25 μL final volume containing 5 ng of Flt3 kinase (obtained by purifying recombinant N-terminal 6×His-tagged Flt3 kinase domain construct expressed from baculovirus), 5 μg of the substrate (Poly(Glu-Tyr, 4:1, Sigma)), kinase reaction buffer (20 mM MOPS pH 7.0, 1 mM EDTA, 5% glycerol, 0.01% Brij-35, 0.1% β-mercaptoethanol, 1 mg/mL BSA, 100 μM ATP, 0.1 μCi per well [^33P]-γ-ATP (2,500-3,000 Ci/mmol)), and a test compound (100 nM, diluted with 4% DMSO) or DMSO (as the control) was incubated at 30° C. for 30 minutes. The reaction was stopped by adding 5 μL of 3% phosphoric acid solution. The resultant reaction solution was then harvested onto a filter plate (UniFilter-96 GF/B, PerkinElmer), washed 20 times for 5 min with d.d. H2O, and followed by the addition of 30 μL of MicroScint™-20 Cocktail (PerkinElmer). The plate was then sealed and counted using a TopCount™ scintillation detector (PerkinElmer). IC50 value is defined as the concentration of the test compound which achieves a half-maximal inhibition of the kinase activity.

VEGFR2 kinase = VEGFR2 kinase (Homo sapiens (Human), UniProt P35968); assay: VEGFR2 kinase assay; assay type: biochemical
Procedure: Inhibition of VEGFR2 kinase activity by compounds disclosed herein was quantified by measuring the amount of [^33P] incorporated into the substrate in the presence of a test compound. […] The reaction was then stopped by adding 5 μL of 3% phosphoric acid solution. The resultant solution was transferred to and harvested by a filter plate (UniFilter-96 GF/B, PerkinElmer). The filter plate was then washed 20 times with d.d. H2O for 5 min followed by the addition of 30 μL of MicroScint™-20 Cocktail (PerkinElmer). After the plate was sealed, the retained radioactivity on the filter was counted using a TopCount™ scintillation detector (PerkinElmer). […]

B-Raf (V600E) = B-Raf (V600E) (Homo sapiens (Human), UniProt P15056, V600E); assay: Raf kinase assay (B-Raf (V600E)), [33P] incorporation into MEK1(K97R); assay type: biochemical
In short: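 Recombinant C-Raf (2 ng) or B-Raf or B-Raf V600E (5 ng each) phosphorylated 500 ng MEK1(K97R) with 8 μM ATP plus [33P]ATP, pH 7.5, 30 min at 30 °C. Filter-captured 33P counted. IC50 from 3-fold compound dilutions run in duplicate.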

EGFR kinase = EGFR kinase (Homo sapiens (Human), UniProt P00533); assay: EGFR kinase assay; assay type: biochemical
Procedure: Inhibition of EGFR kinase activity by compounds disclosed herein is quantified by measuring the amount of [^33P] incorporated into the substrate in the presence of a test compound. Briefly, a reaction mixture of 25 μL final volume containing 25 ng of EGFR kinase (EGFR kinase domain alone, Millipore), 3 μg of the substrate [poly(Glu-Tyr), Sigma], kinase reaction buffer (10 mM MOPS pH 7.0, 0.3 mM EDTA, 0.5% glycerol, 0.001% Brij-35, 10 mM MnCl2, 0.1 mg/ml BSA, 100 μM ATP, 0.1 μCi per well [^33P]-γ-ATP (2,500-3,000 Ci/mmol)), and a test compound (100 nM, diluted with 4% DMSO) or DMSO (as the control) was incubated at 30° C. for 30 minutes. The reaction was stopped by adding 5 μL of 3% phosphoric acid solution. The resultant reaction solution was then harvested onto a filter plate (UniFilter-96 GF/B, PerkinElmer), washed 20 times for 5 min with d.d. H2O, and followed by the addition of 30 μL of MicroScint™-20 Cocktail (PerkinElmer). The radioactivity retained on the filter membrane was measured by TopCount™ scintillation detector (PerkinElmer). The results were analyzed by using linear regression software (GraphPad Prism™ 4; GraphPad Software Inc.). IC50 value is defined as the concentration of the test compound which achieves a half-maximal inhibition of the kinase activity.

Chain of VEGFR2 kinase (P35968 834-1162): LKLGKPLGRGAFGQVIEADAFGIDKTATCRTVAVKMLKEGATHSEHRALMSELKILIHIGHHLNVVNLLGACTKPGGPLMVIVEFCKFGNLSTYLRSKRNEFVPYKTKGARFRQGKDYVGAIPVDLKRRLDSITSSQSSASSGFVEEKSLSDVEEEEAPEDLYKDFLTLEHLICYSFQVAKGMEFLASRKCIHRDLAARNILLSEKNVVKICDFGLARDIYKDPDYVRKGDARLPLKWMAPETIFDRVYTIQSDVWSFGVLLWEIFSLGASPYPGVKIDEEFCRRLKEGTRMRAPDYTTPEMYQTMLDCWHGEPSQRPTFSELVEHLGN
Chain of FLT3 kinase (P36888 610-943): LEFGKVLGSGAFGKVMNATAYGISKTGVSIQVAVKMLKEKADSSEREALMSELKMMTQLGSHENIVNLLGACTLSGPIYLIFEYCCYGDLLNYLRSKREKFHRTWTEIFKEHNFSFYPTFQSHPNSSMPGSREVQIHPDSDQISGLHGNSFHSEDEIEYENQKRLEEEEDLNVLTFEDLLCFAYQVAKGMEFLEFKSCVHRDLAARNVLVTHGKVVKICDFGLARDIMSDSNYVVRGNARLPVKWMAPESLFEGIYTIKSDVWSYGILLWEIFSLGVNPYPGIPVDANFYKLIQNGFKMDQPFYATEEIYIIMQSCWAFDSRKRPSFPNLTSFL
Chain of EGFR kinase (P00533 712-979): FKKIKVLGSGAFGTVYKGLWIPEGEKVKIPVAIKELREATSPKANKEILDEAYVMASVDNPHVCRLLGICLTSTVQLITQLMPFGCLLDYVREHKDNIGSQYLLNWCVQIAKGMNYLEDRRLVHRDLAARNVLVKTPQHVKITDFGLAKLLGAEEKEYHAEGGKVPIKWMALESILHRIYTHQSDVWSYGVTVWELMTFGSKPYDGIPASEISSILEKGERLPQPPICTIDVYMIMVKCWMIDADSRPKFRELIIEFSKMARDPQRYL
Chain of B-Raf (V600E) (P15056 whole entry V600E): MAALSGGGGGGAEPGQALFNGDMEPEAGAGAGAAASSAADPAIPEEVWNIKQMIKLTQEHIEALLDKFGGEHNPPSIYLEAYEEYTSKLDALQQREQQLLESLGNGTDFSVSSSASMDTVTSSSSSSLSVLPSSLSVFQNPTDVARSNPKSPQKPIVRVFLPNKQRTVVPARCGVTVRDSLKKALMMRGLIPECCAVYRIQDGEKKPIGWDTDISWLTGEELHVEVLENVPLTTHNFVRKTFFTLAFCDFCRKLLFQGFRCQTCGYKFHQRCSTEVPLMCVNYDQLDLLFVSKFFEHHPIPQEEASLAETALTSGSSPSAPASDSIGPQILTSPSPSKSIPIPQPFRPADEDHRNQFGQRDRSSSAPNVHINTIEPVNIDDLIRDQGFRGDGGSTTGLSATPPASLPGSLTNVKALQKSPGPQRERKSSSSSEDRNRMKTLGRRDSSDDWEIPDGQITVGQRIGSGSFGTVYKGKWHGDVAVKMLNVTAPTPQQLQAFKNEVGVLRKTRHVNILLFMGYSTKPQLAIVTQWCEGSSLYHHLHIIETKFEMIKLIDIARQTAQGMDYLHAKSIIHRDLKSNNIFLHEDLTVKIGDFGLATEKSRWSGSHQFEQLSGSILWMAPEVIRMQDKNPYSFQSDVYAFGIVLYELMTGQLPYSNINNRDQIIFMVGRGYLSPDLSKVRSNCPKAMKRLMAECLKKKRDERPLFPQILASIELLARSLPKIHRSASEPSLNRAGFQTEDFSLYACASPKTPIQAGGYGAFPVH

Row | SMILES | IC50 (A549) | IC50 (MDA-MB-231) | IC50 (FLT3 kinase) | IC50 (VEGFR2 kinase) | IC50 (B-Raf (V600E)) | IC50 (EGFR kinase)
1 | COc1cc(-c2ccc3ncnc(Nc4cccc(O)c4)c3c2)ccc1O [Compound 8, 4-(4-(3-hydroxyphenylamino)quinazolin-6-yl)-2-methoxyphenol] | 1100 ± 100 nM | 1500 ± 100 nM | 271 nM | 139 nM | 37.4 nM | 18.7 nM
2 | COc1cc(-c2ccc3ncnc(Nc4cc(O)ccc4F)c3c2)ccc1O [Compound 58, 4-(4-(2-fluoro-5-hydroxyphenylamino)quinazolin-6-yl)-2-methoxyphenol] | 500 ± 200 nM | 800 ± 300 nM | 137 nM | 23.5 nM | 23.2 nM | 14.9 nM
